20 compounds from US20240254118A1, “PRMT5 INHIBITORS AND USES THEREOF” (Gilead Sciences, Inc., priority 2022, published 2024) can be followed below.

Assay [1] concerns SDMA signal (PRMT5 inhibition) in HCT116 MTAP-deleted cells. The assay can be described thus: Symmetric di-methyl arginine image-based high content screen assay (SDMA assay), HCT116 MTAP-deleted. In kind it is cell-based. Particulars: SDMA assay; for EC50: Homo sapiens, HCT-116, 72 h, 3 days of treatment, cell line not given, taken as HCT116 MTAP-deleted, read-out: EC50 (SDMA assay); for EC50 selectivity (SDMA assay): taken as HCT116 WT versus MTAP-deleted. Put shortly:
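Read-out: per-cell mean SDMA immunofluorescence (Alexa Fluor 488 secondary), cells segmented by DAPI on a high-content imager. Compound exposure in HCT116 MTAP-deleted cells lasted until fixation on Day 3; overnight 4° C primary anti-SDMA antibody staining.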

Assay [2] concerns HCT116 MTAP-deleted cells. The assay can be described thus: Cell viability assay (CellTiter-Glo, 7 days), HCT116 MTAP-deleted. Particulars: Homo sapiens, HCT-116, 168 h.
Description: Control compounds were analyzed in parallel each time for quality control.
In Brief, on Day −1, a serial dilution of stock compounds in DMSO was performed using BioMek liquid handlers and dispensed using Echo acoustic dispenser into 384 well plates. Both tool compounds and sample compounds were spotted in the same plate for a dose response of PRMT5 inhibitors. Compound plates were stored as frozen until the cells were ready for seeding.
On Day 0, 100 HCT WT or HCT116 MTAP-deleted cells were seeded in compound-containing 384 well plates (50 μl per well) in RPMI 1640 media supplemented with 10% heat inactivated fetal bovine serum, Glutamax and penicillin streptomycin using EL460 liquid dispenser 5 μl cassette (BioTek, part no. 7170011). After equilibrating the plate in room temperature, the cells were incubated for 7 days inside the sealed incubator set at 37 °C with 90% humidity and 5% CO2.
On Day 7, the viability of cells was measured using a CTG assay kit (CellTitre-Glo; Promega cat no. G7573). Shortly, 40 μl per well of luminescent cell viability assay reagent were dispensed using EL460 liquid dispenser 5 μl cassette. CTG luminescence signal was measured using an EnVision plate reader (PerkinElmer) in accordance with manufacturer's instruction. The CC50 values for each compound after 7 days of treatment were calculated using 4 parameter non-linear logistical curve fit.

Each structure is given as a SMILES string.

With `CC(=O)N(C)N(Cc1ccc(-c2ccns2)cc1F)C(=O)c1ccc2nc(N)c3cnn(C)c3c2c1` [Example 234, N′-acetyl-4-amino-N-(2-fluoro-4-(isothiazol-5-yl)benzyl)-N′,1-dimethyl-1H-pyrazolo[4,3-c]quinoline-8-carbohydrazide], in assay [1], the EC50 (in general, the concentration needed to bring the measured effect to its halfway point) is under 1 nM and the “EC50 selectivity (SDMA assay)” value is 39. Besides, in assay [2], the CC50 – broadly, the concentration that lowers cell viability or growth by half – is under 100 nM.

Turning to `CN(C(=O)C1CC1)N(Cc1ccc(F)cc1)C(=O)c1ccc2nc(N)c3cnn(C)c3c2c1` [Example 235, 4-amino-N′-(cyclopropanecarbonyl)-N-(4-fluorobenzyl)-N′,1-dimethyl-1H-pyrazolo[4,3-c]quinoline-8-carbohydrazide], in assay [1], the EC50 lay in the range of 1 to 5 nM and the “EC50 selectivity (SDMA assay)” value is on record as 259. In assay [2], this compound had a CC50 of under 100 nM.

`CC(=O)N(C)N(Cc1ccc(-c2cnn(C3CC3)c2)cc1F)C(=O)c1ccc2nc(N)c3cnn(C)c3c2c1` [Example 236, N′-acetyl-4-amino-N-(4-(1-cyclopropyl-1H-pyrazol-4-yl)-2-fluorobenzyl)-N′,1-dimethyl-1H-pyrazolo[4,3-c]quinoline-8-carbohydrazide]: in assay [1], the EC50 is under 1 nM and the “EC50 selectivity (SDMA assay)” value is given as 203. In assay [2], this compound showed a CC50 of under 100 nM.

As to `CN(C(=O)C1CC1)N(Cc1ccc(-c2cnn(C(F)F)c2)cc1F)C(=O)c1ccc2nc(N)c3cnn(C)c3c2c1` [Example 238, 4-amino-N′-(cyclopropanecarbonyl)-N-(4-(1-(difluoromethyl)-1H-pyrazol-4-yl)-2-fluorobenzyl)-N′,1-dimethyl-1H-pyrazolo[4,3-c]quinoline-8-carbohydrazide], in assay [1], the concentration for a half-maximal effect (EC50) is under 1 nM and the “EC50 selectivity (SDMA assay)” value stood at 77. Moreover, the CC50 in assay [2] was under 100 nM.

Take `CN(C(=O)C1CC1)N(Cc1ccc(-c2cnsc2)cc1F)C(=O)c1ccc2nc(N)c3cnn(C)c3c2c1` [Example 240, 4-amino-N′-(cyclopropanecarbonyl)-N-(2-fluoro-4-(isothiazol-4-yl)benzyl)-N′,1-dimethyl-1H-pyrazolo[4,3-c]quinoline-8-carbohydrazide]: in assay [1], the EC50 is under 1 nM and the “EC50 selectivity (SDMA assay)” value amounted to 95. Moreover, the CC50 in assay [2] was under 100 nM.

As to `CC(=O)N(C)N(Cc1ccc(-c2cnn(C(F)F)c2)cc1F)C(=O)c1ccc2nc(N)c3cnn(C)c3c2c1` [Example 242, N′-acetyl-4-amino-N-(4-(1-(difluoromethyl)-1H-pyrazol-4-yl)-2-fluorobenzyl)-N′,1-dimethyl-1H-pyrazolo[4,3-c]quinoline-8-carbohydrazide], in assay [1], the EC50 was under 1 nM and the “EC50 selectivity (SDMA assay)” value came to 77. Besides, the CC50 in assay [2] was under 100 nM.

In the case of `CC(=O)N(C)N(Cc1ccc(-c2ccnn2C)cc1F)C(=O)c1ccc2nc(N)c3cnn(C)c3c2c1` [Example 243, N′-acetyl-4-amino-N-(2-fluoro-4-(1-methyl-1H-pyrazol-5-yl)benzyl)-N′,1-dimethyl-1H-pyrazolo[4,3-c]quinoline-8-carbohydrazide], in assay [1], the EC50 is under 1 nM and the “EC50 selectivity (SDMA assay)” value turned out to be 171. The compound also yielded a CC50 in assay [2] of under 100 nM.

Consider `CC(=O)N(C)N(Cc1ccc(-c2ccnn2C(F)(F)F)cc1F)C(=O)c1ccc2nc(N)c3cnn(C)c3c2c1` [Example 244, N′-acetyl-4-amino-N-(2-fluoro-4-(1-(trifluoromethyl)-1H-pyrazol-5-yl)benzyl)-N′,1-dimethyl-1H-pyrazolo[4,3-c]quinoline-8-carbohydrazide], for which, in assay [1], the EC50 was under 1 nM and the “EC50 selectivity (SDMA assay)” value came out at 109. Also, the CC50 in assay [2] was under 100 nM.

With `CN(C(=O)C12CC(C1)C2)N(Cc1ccc(C(F)(F)F)nn1)C(=O)c1cc2c(cc1F)nc(N)c1cnn(C)c12` [Example 246, 4-amino-N′-(bicyclo[1.1.1]pentane-1-carbonyl)-7-fluoro-N′, 1-dimethyl-N-((6-(trifluoromethyl)pyridazin-3-yl)methyl)-1H-pyrazolo[4,3-c]quinoline-8-carbohydrazide], in assay [1], the EC50 lay in the range of 1 to 5 nM and the “EC50 selectivity (SDMA assay)” value turned out to be 288. The compound also gave a CC50 in assay [2] of 100 to 1000 nM.

`CN(C(=O)C12CC(C1)C2)N(Cc1ccc(C(F)(F)F)nn1)C(=O)c1ccc2nc(N)c3cnn(C)c3c2c1` [Example 248, 4-amino-N′-(bicyclo[1.1.1]pentane-1-carbonyl)-N′,1-dimethyl-N-((6-(trifluoromethyl)pyridazin-3-yl)methyl)-1H-pyrazolo[4,3-c]quinoline-8-carbohydrazide]: in assay [1], the 50% effective concentration (EC50) fell in the range of 1 to 5 nM and the “EC50 selectivity (SDMA assay)” value is 536. For the same compound, the CC50 in assay [2] lay in the range of 100 to 1000 nM.

For the compound `CC(=O)N(C)N(Cc1ccc(-c2ccn(C(F)(F)F)n2)cc1F)C(=O)c1ccc2nc(N)c3cnn(C)c3c2c1` [Example 249, N′-acetyl-4-amino-N-(2-fluoro-4-(1-(trifluoromethyl)-1H-pyrazol-3-yl)benzyl)-N′,1-dimethyl-1H-pyrazolo[4,3-c]quinoline-8-carbohydrazide], in assay [1], the EC50 is under 1 nM and the “EC50 selectivity (SDMA assay)” value was 193. The compound further displayed a half-maximal cytotoxic concentration (CC50) in assay [2] of under 100 nM.

For the compound `CC(=O)N(C)N(Cc1ccc(-c2csc(C(F)(F)F)n2)cc1F)C(=O)c1ccc2nc(N)c3cnn(C)c3c2c1` [Example 250, N′-acetyl-4-amino-N-(2-fluoro-4-(2-(trifluoromethyl)thiazol-4-yl)benzyl)-N′,1-dimethyl-1H-pyrazolo[4,3-c]quinoline-8-carbohydrazide], in assay [1], the EC50 is under 1 nM and the “EC50 selectivity (SDMA assay)” value worked out at 153. The same compound returned a CC50 in assay [2] of under 100 nM.

For the compound `COC(=O)N(C)N(Cc1ccc(C(F)(F)F)cn1)C(=O)c1ccc2nc(N)c3cnn(C)c3c2c1` [Example 253, methyl 2-(4-amino-1-methyl-1H-pyrazolo[4,3-c]quinoline-8-carbonyl)-1-methyl-2-((5-(trifluoromethyl)pyridin-2-yl)methyl)hydrazine-1-carboxylate], in assay [1], the half-maximal effective concentration (EC50) was under 1 nM and the “EC50 selectivity (SDMA assay)” value was 28. Moreover, the CC50 in assay [2] was under 100 nM.

For `[2H]C([2H])(c1ccc(C(F)(F)F)cn1)N(C(=O)c1ccc2nc(N)c3cnn(C([2H])([2H])[2H])c3c2c1)N(C)C(=O)C1CC1` [Example 254, 4-amino-N′-(cyclopropanecarbonyl)-N′-methyl-1-(methyl-d3)-N-((5-(trifluoromethyl)pyridin-2-yl)methyl-d2)-1H-pyrazolo[4,3-c]quinoline-8-carbohydrazide], in assay [1], the EC50 is under 1 nM and the “EC50 selectivity (SDMA assay)” value is 266. Further, in assay [2], the CC50 is under 100 nM.

`CN(C(=O)[C@H]1C[C@@H]1F)N(Cc1ccc(C(F)(F)F)cn1)C(=O)c1ccc2nc(N)c3cnn(C)c3c2c1` [Example 255, 4-amino-N′-((1R,2S)-2-fluorocyclopropane-1-carbonyl)-N′,1-dimethyl-N-((5-(trifluoromethyl)pyridin-2-yl)methyl)-1H-pyrazolo[4,3-c]quinoline-8-carbohydrazide]: in assay [1], the EC50 is under 1 nM and the “EC50 selectivity (SDMA assay)” value is recorded as 51. In addition, the cytotoxic concentration (CC50) in assay [2] is under 100 nM.

Regarding `[2H]C([2H])(c1ccc(C(F)(F)F)cn1)N(C(=O)c1ccc2nc(N)c3cnn(C)c3c2c1)N(C)C(=O)C1CC1` [Example 256, 4-amino-N′-(cyclopropanecarbonyl)-N′,1-dimethyl-N-((5-(trifluoromethyl)pyridin-2-yl)methyl-d2)-1H-pyrazolo[4,3-c]quinoline-8-carbohydrazide], in assay [1], the EC50 is under 1 nM and the “EC50 selectivity (SDMA assay)” value stood at 130. In assay [2], this compound returned a CC50 of under 100 nM.

Consider `[2H]C([2H])([2H])n1ncc2c(N)nc3ccc(C(=O)N(Cc4ccc(C(F)(F)F)cn4)N(C)C(=O)C4CC4)cc3c21` [Example 257, 4-amino-N′-(cyclopropanecarbonyl)-N′-methyl-1-(methyl-d3)-N-((5-(trifluoromethyl)pyridin-2-yl)methyl)-1H-pyrazolo[4,3-c]quinoline-8-carbohydrazide], for which, in assay [1], the EC50 was under 1 nM and the “EC50 selectivity (SDMA assay)” value is listed as 213. The CC50 in assay [2] was under 100 nM.

Regarding `CN(C(=O)[C@H]1C[C@H]1F)N(Cc1ccc(C(F)(F)F)cn1)C(=O)c1ccc2nc(N)c3cnn(C)c3c2c1` [Example 258, 4-amino-N′-((1R,2R)-2-fluorocyclopropane-1-carbonyl)-N′,1-dimethyl-N-((5-(trifluoromethyl)pyridin-2-yl)methyl)-1H-pyrazolo[4,3-c]quinoline-8-carbohydrazide], in assay [1], the EC50 was in the range of 1 to 5 nM and the “EC50 selectivity (SDMA assay)” value was found to be 221. The same compound returned a CC50 in assay [2] of under 100 nM.

Regarding `CN(C(=O)C1CC1)N(Cc1nc2cc(Cl)ccc2o1)C(=O)c1ccc2nc(N)c3cnn(C)c3c2c1` [Example 259, 4-amino-N-((5-chlorobenzo[d]oxazol-2-yl)methyl)-N′-(cyclopropanecarbonyl)-N′,1-dimethyl-1H-pyrazolo[4,3-c]quinoline-8-carbohydrazide], in assay [1], the EC50 is 1 to 5 nM and the “EC50 selectivity (SDMA assay)” value came out at 182. In assay [2], this compound registered a 50% cytotoxic concentration (CC50) of under 100 nM.

Turning to `Cn1ncc2c(N)nc3ccc(C(=O)N(Cc4ccc(C(F)(F)F)cn4)N4C(=O)O[C@@H]5CC[C@@H]54)cc3c21` [Example 260, 4-amino-1-methyl-N-((1R,5S)-3-oxo-2-oxa-4-azabicyclo[3.2.0]heptan-4-yl)-N-((5-(trifluoromethyl)pyridin-2-yl)methyl)-1H-pyrazolo[4,3-c]quinoline-8-carboxamide], in assay [1], the EC50 is 1 to 5 nM and the “EC50 selectivity (SDMA assay)” value is reported as 211. In addition, the CC50 in assay [2] is under 100 nM.
